Measured values taken from US20240101600A1, “FIBROBLAST GROWTH FACTOR RECEPTOR (FGFR)-TARGETING ANTAGONISTIC SHORT PEPTIDE” (WENZHOU MEDICAL UNIVERSITY, priority 2019, published 2024).
Where no end group is shown, it is not given here.

Assays:
[1] = Half-life of peptides in human plasma (incubation, SPE, liquid chromatography); assay type: in vitro ADME; details: compared with precursor peptide P9
FGFR1 [2] = target: T1, FGFR1 (Homo sapiens, UniProt P11362); assay: Western blot of FGFR1 signaling pathway in lung cancer cells NCI-H460; assay type: cell-based; parameters: endogenous in cells; host or cells: Hela229; NCI-H460; SGC-7901; MGC-803; details: bFGF stimulation
T1 sequence (P11362 22-822): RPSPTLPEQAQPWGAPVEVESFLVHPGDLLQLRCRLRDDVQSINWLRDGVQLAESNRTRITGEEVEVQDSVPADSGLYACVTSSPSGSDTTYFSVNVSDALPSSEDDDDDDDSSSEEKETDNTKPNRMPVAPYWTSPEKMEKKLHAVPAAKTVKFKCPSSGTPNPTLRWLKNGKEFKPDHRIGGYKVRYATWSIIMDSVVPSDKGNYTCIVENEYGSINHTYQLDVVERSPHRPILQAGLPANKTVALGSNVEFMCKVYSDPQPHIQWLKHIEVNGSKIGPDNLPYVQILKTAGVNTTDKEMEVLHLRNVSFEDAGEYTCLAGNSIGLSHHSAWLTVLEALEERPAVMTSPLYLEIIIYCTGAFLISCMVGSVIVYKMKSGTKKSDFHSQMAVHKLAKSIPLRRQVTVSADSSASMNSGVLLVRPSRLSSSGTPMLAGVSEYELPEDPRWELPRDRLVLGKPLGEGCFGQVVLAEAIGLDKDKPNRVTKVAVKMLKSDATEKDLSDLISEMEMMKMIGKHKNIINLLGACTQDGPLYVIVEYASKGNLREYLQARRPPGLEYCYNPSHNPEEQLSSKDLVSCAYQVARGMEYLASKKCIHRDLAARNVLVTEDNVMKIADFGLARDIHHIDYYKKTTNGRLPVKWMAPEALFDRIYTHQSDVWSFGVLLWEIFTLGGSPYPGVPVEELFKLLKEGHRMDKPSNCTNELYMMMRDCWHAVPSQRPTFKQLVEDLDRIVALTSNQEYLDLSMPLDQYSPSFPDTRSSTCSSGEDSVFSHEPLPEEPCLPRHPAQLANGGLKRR
Protocol: Cervical cancer cells Hela229, melanoma B16-F10, lung cancer cells NCI-H460, gastric cancer cells SGC-7901 and MGC-803 were inoculated into 6-well plates, respectively. After growing adherently overnight, the cells were pretreated with P48 for 10 min or with AZD4547/SSR for 2 h, and incubated with bFGF for 15 min or with KGF for 20 min.

FGFR3B = FGFR3B (Homo sapiens, UniProt P22607); assay: SPR detection of interaction with FGFR3B; assay type: binding
Chain of FGFR3B (P22607 23-808 isoform P22607-2 limits assumed): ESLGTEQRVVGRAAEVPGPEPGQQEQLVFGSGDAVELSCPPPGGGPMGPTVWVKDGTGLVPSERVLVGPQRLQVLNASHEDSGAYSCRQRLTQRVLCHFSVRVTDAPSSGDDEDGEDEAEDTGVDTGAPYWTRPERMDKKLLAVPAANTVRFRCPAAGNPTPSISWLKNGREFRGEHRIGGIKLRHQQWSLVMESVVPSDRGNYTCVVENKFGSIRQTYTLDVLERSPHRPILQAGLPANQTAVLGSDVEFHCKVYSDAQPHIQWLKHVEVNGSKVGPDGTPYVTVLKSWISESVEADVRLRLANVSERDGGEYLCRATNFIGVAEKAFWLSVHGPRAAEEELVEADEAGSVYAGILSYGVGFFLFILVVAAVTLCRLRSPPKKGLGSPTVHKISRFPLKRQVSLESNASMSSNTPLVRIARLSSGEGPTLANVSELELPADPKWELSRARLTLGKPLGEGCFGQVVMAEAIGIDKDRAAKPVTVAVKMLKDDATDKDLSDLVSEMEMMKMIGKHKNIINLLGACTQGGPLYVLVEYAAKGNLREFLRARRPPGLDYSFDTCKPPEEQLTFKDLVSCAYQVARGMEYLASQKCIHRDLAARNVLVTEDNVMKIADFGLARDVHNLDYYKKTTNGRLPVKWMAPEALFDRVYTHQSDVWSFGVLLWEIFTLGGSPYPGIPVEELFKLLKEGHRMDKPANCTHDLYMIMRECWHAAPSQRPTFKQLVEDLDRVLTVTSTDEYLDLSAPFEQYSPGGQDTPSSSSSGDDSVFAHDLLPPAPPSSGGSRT

FGFR1 [3] = target: T1, FGFR1; assay: Western blot of bFGF-induced FGFR1 activation in HEK-293 cells; assay type: cell-based; parameters: endogenous in cells; host or cells: HEK-293; details: P48 pretreatment 10 min, bFGF 15 min
Protocol: Human embryonic kidney cells HEK-293, fibroblasts MEF-WT and Balb/c 3T3 were inoculated into 6-well plates, respectively. After growing adherently overnight, the cells were pretreated with P48 for 10 min or with AZD4547/PD173074/SSR for 2 h, and incubated with bFGF for 15 min. […] The experimental procedure was as follows: MEF-WT and MEFKO (FGFR1-FGFR2-FRS2a) cells (1×10^6 cells/ml) were inoculated in a 35 mm petri dish. After being adhered to the wall of petri dish overnight, the cells were washed with PBS; FITC-conjugated P48 (1, 10, 100 and 1000 nM) was added, and the cells were incubated in an incubator for 30 min. The cells were immobilized with 1% paraformaldehyde in the dark and washed with PBS. An expression level of the FITC was measured at a fluorescence channel 1 (FL-1) (530 nm), with an excitation wavelength of 488 nm. Data analysis was conducted using CellQuest software (Becton Dickinson).

FGFR1C = target: T2, FGFR1C (Homo sapiens, UniProt P11362); assay: SPR detection of interaction with FGFR1C; assay type: binding
T2 sequence (P11362 22-376 limits assumed): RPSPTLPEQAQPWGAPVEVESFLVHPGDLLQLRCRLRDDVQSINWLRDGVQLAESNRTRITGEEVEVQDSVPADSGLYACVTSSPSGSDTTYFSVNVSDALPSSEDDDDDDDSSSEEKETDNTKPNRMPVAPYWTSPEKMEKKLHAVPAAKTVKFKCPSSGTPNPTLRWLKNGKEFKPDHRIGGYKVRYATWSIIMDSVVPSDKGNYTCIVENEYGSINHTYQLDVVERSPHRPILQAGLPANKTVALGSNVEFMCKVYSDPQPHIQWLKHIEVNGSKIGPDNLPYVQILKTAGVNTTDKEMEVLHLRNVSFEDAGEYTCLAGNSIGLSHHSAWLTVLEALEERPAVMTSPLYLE
Protocol: Amino acid sequence of P9 degraded short peptide P48 was analyzed using Amber11 program. An initial structure of the P9 and P48 peptide chains was constructed using a sequence command in a Tleap module of the Amber11 program. Hydrogen atoms were added using the Tleap module of the Amber11 program, a […] TIP3P solvent box was added at a distance of 10 Å from the peptide chain, and counter ions were added to the two systems to keep the system electrically neutral. The system was subjected to 20-ns NPT system simulation to obtain an optimal spatial structure. […] The last 1 ns of trajectory obtained by molecular dynamics simulation of the system was selected to calculate the binding free energy, the molecules of the solvent of water and counter ion were deleted, and conformation was recorded every 10 ps to obtain a total of 101 structures. The binding free energy between FGF2 and FGFR1 were calculated by a molecular mechanics-generalized born surface area (MM-GBSA) method. The binding free energy and energy decomposition of amino acid residues were calculated using an MMPBA.py script provided by the Amber11. […] After bFGF and FGFR1 flew into the sensor chip, P48 (50 μM, 100 μM, 200 μM, 300 μM and 400 μM) was injected into a sensor surface, and the obtained data was analyzed using BIAevaluation software. […]

half-life in plasma [1]: relatively prolonged half-life
binding to FGFR3B (FGFR3B): can be bound
binding to FGFR1C (FGFR1C): can be bound
rank of binding degree among FGFRs (FGFR1C): FGFR1C has the strongest binding degree
Substance: SPPRYPGGGS-NH2 [P48, Ser-Pro-Pro-Arg-Tyr-Pro-Gly-Gly-Gly-Ser-NH2]
inhibition of FGFR1 signaling pathway (FGFR1 [2]): can inhibit the FGFR1 signaling pathway of cervical cancer, melanoma, lung cancer and gastric cancer in a concentration-dependent manner
inhibition of FGFR1 activation induced by bFGF (FGFR1 [3]): can inhibit activation of FGFR1 induced by bFGF in a concentration-dependent manner
